The structures appear in SMILES notation.

The subject of one series is hGCGR.ob/ob mice. Briefly: Antihyperglycemic efficacy in hGCGR.ob/ob mice (acute and chronic). The format is in vivo, hGCGR.ob/ob mouse. From the text:
The present study made use of a line of hGCGR-expressing mouse (“hGCGR mouse”) generated previously by substituting the hGCGR gene for the mouse GCGR gene. These mice were crossed with C57BL/6J.ob/+ mice (Jackson Laboratories, Bar Harbor, ME) to obtain an hGCGR.ob/+ mouse line. The hGCGR.ob/+ mice were then intercrossed to obtain hGCGR.ob/ob, hGCGR.ob/+, and hGCGR.+/+ mice (with the hGCGR.ob/+ and hGCGR.+/+ mice serving as littermate controls). […] obese (DIO) hGCGR mice were generated by maintaining hGCGR mice on a high-fat diet (HFD) in which 45–60% of calories were in fat (Product S3282, Bio-Serv, Frenchtown, NJ). High-fat-diet-streptozotocin-treated (HFD/STZ) diabetic mice were generated in-house as previously described.
Acute glucose lowering was studied in non-fasted hGCGR.ob/ob mice and HFD/STZ mice administered single doses p.o. of 1, 3 and 10 mg/kg GRA1 in 10 mL/kg 0.5% aqueous methylcellulose. Animals were fasted during the interval between dosing and the final blood glucose measurement. Glucose was measured in blood from tail bleeds using a OneTouch glucometer. In the experiments with hGCGR HFD/STZ mice, treatment groups were matched with respect to body weight and blood glucose levels.
Animals were dosed chronically with GRA1 and the DPP-4 inhibitor des-fluoro-sitagliptin by administering these agents as food admixtures. The admixtures were prepared in-house and by Research Diets (New Brunswick, NJ), with drug concentrations adjusted weekly on the basis of average food consumption and animal weight to provide targeted daily doses. In the GRA1 experiments, the targeted doses were 3, 6, 10, and 30 mg/kg•day. In des-fluoro-sitagliptin experiments, the targeted dose was 200 mg/kg•day, a relatively high amount necessary because this compound has a half-life in rodents of 1–2 h.
Plasma glucagon and active GLP-1 were measured using commercial ELISA kits (Linco Research Immunoassay, St. Charles, MO). […] Plasma insulin was determined by ELISA with a commercial kit (ALPCO Diagnostics, Windham, NH). Plasma concentrations of glycated hemoglobin A1c (HbA1c) were measured using a Micromat II test kit from Bio-Rad Laboratories (Hercules, CA). Total cholesterol, low-density lipoprotein cholesterol (LDL-c) and non-LDL-c, and aspartate aminotransferase were measured using a Roche P Modular Clinical Chemistry analyzer (Indianapolis, IN).
Figure 4 GRA1 lowers blood glucose in the DIO hGCGR and hGCGR.ob/ob mouse. Mean (±SEM) blood glucose concentrations in (A) non-fasted and (B) fasted DIO hGCGR mice treated with approximately 3 and 10 mg/kg·day GRA1 provided as a food admixture. (Additional data from this study are in Table 2). (C) Mean (±SEM) blood glucose concentrations in the hGCGR.ob/ob mouse following single oral doses of 1, 3, or 10 mg/kg GRA1 or vehicle. (D) Mean (±SEM) non-fasted blood glucose concentrations in hGCGR.ob/ob mice treated for 2–8 weeks with control diet or 10 mg/kg·day GRA1 administered as diet admixture. *p<0.05, **p<0.01, and ***p<0.001 in timepoint-matched comparisons with controls; n = 8 in each group.

For a further series, the target named is T1, rhesus GCGR (Macaca mulatta, UniProt A0A1D5QZY8).
T1 construct: expressed in transfected cells
Briefly: Inhibition of glucagon-stimulated cAMP production in CHO cells expressing rhesus GCGR. The class given is cell-based. For orientation: cAMP levels reflect the balance of adenylyl cyclase and phosphodiesterase activity.

The test system of series [1] is primary human hepatocytes. Briefly: Glucagon-stimulated glycogenolysis in primary human hepatocytes. The format is cell-based. The conditions noted are these: 1 h. The protocol: Figure 1 GRA1 inhibits glucagon-mediated glycogenolysis in vitro and ex-vivo. (A) The chemical structure of GRA1. (B) Dose-dependent inhibition of glucagon-stimulated glycogenolysis in human hepatocytes. The cells were pretreated for 3 h with 200 nM insulin and then challenged with 2 nM glucagon with vehicle (Veh, medium with 1% DMSO) or 0.3–10 µM GRA1. Glycogen content was measured after incubating for 1 h. *p<0.05 and **p<0.01 vs. glucagon+vehicle alone. (C) Inhibition of glucagon-stimulated glycogenolysis in perfused liver prepared from the hGCGR mouse. Livers were perfused with Ringers solution containing 6.7 mM [2-^13C]pyruvate while ^13C content (indicative of accumulated [^13C]glycogen) was monitored dynamically by nuclear magnetic resonance imaging. At time = −22 min, 0.1–3.0 uM GRA1 or vehicle was added to the perfusate; 50 pM glucagon or vehicle was added at time 0. The data are means ±SEM.
Transfected Chinese hamster ovary (CHO) cell lines were acquired and maintained as previously described, [20]. These included separate cell lines stably expressing human GCGR (hGCGR), mouse GCGR, rhesus GGCR, glucose-dependent insulinotropic peptide receptor (GIPR), GLP-1 receptor (GLP-1R), pituitary adenylate cyclase-activating polypeptide receptor type 1 (PAC1R), and vasoactive adenylate cyclase-activating polypeptide receptor type 2 (VPAC2R). […]

The subject of a further series is rhesus monkey. Briefly: Blunting of glucagon-induced blood glucose excursion in rhesus monkey. The conditions noted are these: 1 mg/kg 4 h before 15 µg/kg glucagon i.m. The format is in vivo. The procedure: In mouse studies of glucagon-induced excursions in blood glucose, animals were dosed orally with vehicle (10 mL/kg 0.5% aqueous methylcellulose) or GRA1 one hour prior to challenge by intraperitoneal injection of 15 µg/kg glucagon (Eli Lilly, Indianapolis, IN) or vehicle, [20]. In the studies in monkey, GRA1 or vehicle was administered to chair-restrained animals via a nasogastric tube 4 h prior to intramuscular injection of 15 µg/kg glucagon. Blood glucose measurements were made using a OneTouch glucometer (Lifescan, Milpitas, CA).
Figure 3 Blunting of glucagon-induced blood glucose excursions by GRA1 treatment in the (A) hGCGR mouse and (B) rhesus monkey. In (A), mice (n = 8) were administered vehicle or 3, 10 or 30 mg/kg GRA1, then challenged 1 h later (time 0) by intraperitoneal injection of 15 µg/kg glucagon or vehicle. Pharmacokinetic analysis determined that these animals had mean plasma GRA1 concentrations of 0.4, 0.9, and 4.7 µM, respectively, at 1 h postdose. In (B), monkeys (n = 4) were administered 1 mg/kg GRA1 4 h prior to intramuscular injection of 15 µg/kg glucagon or vehicle. At 1 h postdose, the mean plasma GRA1 concentration in these animals was 0.2 µM. *p<0.05; **p<0.01; and ***p<0.001 vs. glucagon-treated control animals.

T1 sequence (A0A1D5QZY8 27-491): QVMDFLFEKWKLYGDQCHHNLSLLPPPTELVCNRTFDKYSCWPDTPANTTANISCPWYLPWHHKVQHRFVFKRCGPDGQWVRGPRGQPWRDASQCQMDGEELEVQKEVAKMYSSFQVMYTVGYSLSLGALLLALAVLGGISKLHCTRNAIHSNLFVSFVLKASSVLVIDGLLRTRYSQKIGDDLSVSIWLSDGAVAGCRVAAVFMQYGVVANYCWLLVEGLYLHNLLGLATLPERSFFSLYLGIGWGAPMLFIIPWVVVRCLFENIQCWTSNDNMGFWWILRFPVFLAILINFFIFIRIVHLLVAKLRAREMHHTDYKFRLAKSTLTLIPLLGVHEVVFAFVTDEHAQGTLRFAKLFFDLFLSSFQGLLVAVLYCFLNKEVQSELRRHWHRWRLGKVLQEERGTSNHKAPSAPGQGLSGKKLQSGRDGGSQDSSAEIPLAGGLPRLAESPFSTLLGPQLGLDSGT
Procedure for rhesus GCGR: Transfected Chinese hamster ovary (CHO) cell lines were acquired and maintained as previously described [17], [20]. These included separate cell lines stably expressing human GCGR (hGCGR), mouse GCGR, rhesus GGCR, glucose-dependent insulinotropic peptide receptor (GIPR), GLP-1 receptor (GLP-1R), pituitary adenylate cyclase-activating polypeptide receptor type 1 (PAC1R), and vasoactive adenylate cyclase-activating polypeptide receptor type 2 (VPAC2R). […] Functional antagonism was assayed by measuring the production of cAMP in intact CHO cells stimulated by agonists specific for their cognate receptors (i.e., glucagon for GCGR-expressing cell lines, GIP for the GIPR-expressing line, etc.).

In the case of `COc1ccc2cc(-c3cc(-c4cc(C(F)(F)F)ccc4F)nn3[C@@H](C)c3ccc(C(=O)NCCC(=O)O)cc3)ccc2c1` [GRA1, N-[4-((1S)-1-{3-(2-fluoro-5-trifluoromethylphenyl)-5-[6-methoxynaphth-2-yl]-1H-pyrazol-1-yl}ethyl)benzoyl]-β-alanine], the “Non-fasted blood glucose lower than control diet” value in the series with hGCGR.ob/ob mice (10 mg/kg•day, 2, 4 and 8 weeks) is 40–50%. The “Food intake, body weight, fasting insulin levels vs control diet” value in the series on hGCGR.ob/ob mice (10 mg/kg•day, 8 weeks (data not shown)) is recorded as “No differences”. Also, in the series with hGCGR.ob/ob mice (10 mg/kg•day, 8 weeks, control diet 189±36), the “Mean fasted blood glucose” value stood at 90.8 ± 7.8 mg/dL. In the series with hGCGR.ob/ob mice (10 mg/kg•day, 8 weeks, control diet 959±90), this compound had a Mean plasma glucagon of 1356 ± 113 pg/mL. Besides, in the series on hGCGR.ob/ob mice (10 mg/kg•day, 8 weeks, controls 15.6±2.0), the “Total GLP-1” value was found to be 26.5 ± 3.0 pM. Also, the “Effect on blood glucose, single dose” value in the series with hGCGR.ob/ob mice (single doses of 3 and 10 mg/kg vs vehicle) is listed as “lowered blood glucose significantly”. In addition, 15 nM corresponded to half-maximal inhibition against rhesus GCGR (IC50). Also, the “Inhibition of glucagon-induced glycogen loss” value in series [1] (10 µM GRA1, 2 nM glucagon) is “completely prevented”. The inhibition (usually the share of the control response that was lost under treatment) at 0.3 µM in series [1] (Homo sapiens, Hepatocyte, 0.3 µM GRA1, 2 nM glucagon, read-out: Inhibition of glucagon-induced glycogen loss) is approximately 50%. In the series with rhesus monkey, the “Reduction of magnitude of glucagon-stimulated blood glucose excursion” value was “about 50%”.

The values above are taken from PMC3501516, “Anti-Diabetic Efficacy and Impact on Amino Acid Metabolism of GRA1, a Novel Small-Molecule Glucagon Receptor Antagonist” (PLoS ONE, 2012).
